Results on 16 molecules are retold here after patent US12263177B2, “Biologically active ganoderma lucidum compounds and synthesis of anticancer derivatives; ergosterol peroxide probes for cellular localization” (priority 2019, dated 2025).

Data set [1] has as its system MDA-MB-231. The data set is described as follows: Cytotoxicity of EP probes via CTG assay. The data set is classed as cell-based, human. Conditions: read-out: MDA-MB231 EC50.
Data set [2] has as its system T47D. Put plainly: Cytotoxicity of EP probes via CTG assay. Type of data set: cell-based. Conditions: 72 hr.
Data set [3] has as its system MDA-MB-231, SUM-149, T47D. The data set is described as follows: Cytotoxicity of EP analogues via CTG assay, comparison across cell lines. Conditions: 72 hr. How it is done:
To better understand the structure-activity-relationship of EP, its core was modified at the C3 position of the steroid backbone. […] Both normal cell lines HMEC and BJ cells were also evaluated to determine therapeutic index.
(§1) Either 1×10^3-4.8×10^3 or 4×10^2-1.2×10^3 cells were seeded to each well of 96- or 384-well white polystyrene flat-bottomed plates (3610 or 8804BC, Corning) in 100 μL or 30 μL media per well, respectively. The concentrations used were experimentally determined to ensure logarithmic growth during the duration of the experiment and prevent adverse effects on cell growth by DMSO exposure. The plates were incubated at 37° C. in 5% CO2 for 24 h before treatment. Stock solutions of test compounds (10 mM in DMSO) in nine 3-fold serial dilutions were dispensed via pintool (Biomek). The final concentration of DMSO was 0.3% (v/v) in each well. The plates were incubated for 72 h at 37° C. in 5% CO2 and then quenched with CellTiter-Glo® reagent (50 μL/well in 96-well plate, 30 μL/well in 384-well plate) at RT. The positive controls included staurosporine (10 μM), gambogic acid (10 μM), and a toxic quinoline generated in-house. Plates were then incubated at RT for 20 min and centrifuged at 1000 rpm for 1 min. The cytotoxicity assay was performed by using the CellTiterGlo Luminescent Cell Viability Assay kit (G7570, Promega, Madison, WI) according to the manufacturer's instructions. Luminescence was recorded in an Envision plate reader (Perkin Elmer).

Data set [4] deals with SUM-149. Put plainly: Cytotoxicity of EP probes via CTG assay. The data set is classed as cell-based, human.
In data set [5] the test system is HMEC. The data set is described as follows: Cytotoxicity of EP probes via CTG assay, normal cells. The conditions noted are these: 72 hr. Type of data set: cell-based.
Data set [6] in a line: Solubility observations. Type of data set: physicochemical. Conditions: DMSO. The method, then: One of the liabilities with EP is sharing its core with cholesterol, an amphipathic molecule with part-water soluble, part-water insoluble character. Thus, while able to readily cross the cell membrane, the ability to deliver the pure compound faces challenges. EP's solubility properties are poor in DMSO or water unless warmed up to 30° C. However, in this report, EP's derivative, EP sulfonamide, was soluble at 10 mM in DMSO. Thus, the generation of a selective anti-cancer compound with greater potency than EP, and ample therapeutic window when compared to BJ normal cells, was accomplished.

Data set [7] concerns BJ cells. The data set is described as follows: Cell viability assay in normal fibroblasts. Conditions: at the concentrations tested. How it is done: The compounds' activity was also evaluated in human and murine leukemia (KOPN8, BCR-ABL, UoCB-1, SUP-B15, NALM06) cell lines. As a control, normal human skin fibroblasts (BJ) cells and non-cancerous mammary epithelial cells (MCF10A) were used.
Different concentrations of GLE-extracted bioactive chemical components were tested for 72-h treatment periods.
as §1, with “The cytotoxicity assay was performed by using the CellTiterGlo Luminescent Cell Viability Assay kit (G7570, Promega, Madison, WI) according to the manufacturer's instructions.” left out
For the CTG assay, 3 or 4 replicate assays were conducted for each experimental condition, and a minimum of 3 independent experiments were conducted for cellular assays. The mean luminescence of each experimental treatment group was normalized as a percentage of the mean intensity of untreated controls. EC50 values (μM) were calculated by Pipeline Pilot Software (Accelrys, Enterprise Platform, CA, USA). EC50 values (μM) from the viability assay were calculated from dose response curve-fitting via non-linear regression by using GraphPad Prism (Version 7.0 San Diego, CA). […]

In data set [8] the test system is SUM-149 cells. Put plainly: Cell viability assay (CellTiter-Glo or PI staining). The data set is classed as cell-based, human. (In general: In ATP-based viability assays light output follows the ATP content of the culture.)
Data set [9] has as its system various breast cancer cell lines. The data set is described as follows: Cell viability assay, breast cancer cell line panel. Type of data set: cell-based.
Where [10] appears, read: Homo sapiens, MDA-MB-231, 72 hr.

The structures appear in SMILES notation. Read-outs that look alike come from different tables or passages of the source.

Consider `CC(C)C(C)C=CC(C)C1CCC2C1(C)CCC1C23C=CC2(CC(=O)CCC12C)OO3` (stereo not shown) [3a], for which the EC50 in data set [1] (72 hr) is 7 µM; in data set [2], 10 µM; in [4] (72 hr, read-out: SUM149 EC50) it was 5 µM; in data set [5], greater than 13 µM. Further, the “cytotoxicity compared with parental compound 3 (in words)” value in data set [3] was “improved activity”.
As for `CC(C)C(C)C=CC(C)C1CCC2C1(C)CCC1C23C=CC2(CC(OC(=O)CCl)CCC12C)OO3` (stereo not shown) [3c], the EC50 is greater than 20 µM in data set [1] (72 hr); greater than 20 µM in [2]; 5 µM in [4] (72 hr, read-out: SUM149 EC50); greater than 20 µM in data set [5]. For the same molecule, the “cytotoxicity compared with parental compound 3 (in words)” value in data set [3] was “promising activity against SUM-149 with little or no activity observed at the tested concentrations in MDA-MB-231 and T47D”.
As for `CC(C)C(C)C=CC(C)C1CCC2C1(C)CCC1C23C=CC2(CC(OC(=O)CN=[N+]=[N-])CCC12C)OO3` (stereo not shown) [3d], the EC50 in [1] (72 hr) is greater than 20 µM; in [2], greater than 20 µM; in data set [4] (72 hr, read-out: SUM149 EC50), 10 µM; in data set [5] it was greater than 20 µM. Further, the “cytotoxicity compared with parental compound 3 (in words)” value in [3] is “promising activity against SUM-149 with little or no activity observed at the tested concentrations in MDA-MB-231 and T47D”.
As for `C#CCOC1CCC2(C)C3CCC4(C)C(C(C)C=CC(C)C(C)C)CCC4C34C=CC2(C1)OO4` (stereo not shown) [3e], the EC50 in [1] (72 hr) was 16 µM; in [2], greater than 20 µM; in [4] (72 hr, read-out: SUM149 EC50) it was 10 µM; in [5] it was greater than 20 µM. For the same molecule, in data set [3], the “cytotoxicity compared with parental compound 3 (in words)” value is “better activity”.
As for `CCOP(=O)(COC1CCC2(C)C3CCC4(C)C(C(C)C=CC(C)C(C)C)CCC4C34C=CC2(C1)OO4)OCC` (stereo not shown) [3f], the EC50 is 9 µM in data set [1] (72 hr); greater than 20 µM in data set [2]; 5 µM in [4] (72 hr, read-out: SUM149 EC50); greater than 20 µM in data set [5]. Also, the “cytotoxicity compared with parental compound 3 (in words)” value in data set [3] is “improved activity”.
For `CC(C)C(C)C=CC(C)C1CCC2C1(C)CCC1C23C=CC2(CC(OCP(=O)(O)O)CCC12C)OO3` (stereo not shown) [3g], the 50% effective concentration (EC50) in data set [1] (72 hr) is 37 µM; in data set [2], greater than 20 µM; in [4] (72 hr, read-out: SUM149 EC50), 5 µM; in [5], greater than 20 µM. In data set [3], the “cytotoxicity compared with parental compound 3 (in words)” value was “poor activity”.
`CC(C)C(C)C=CC(C)C1CCC2C1(C)CCC1C23C=CC2(CC(OP(=O)([O-])OCC[N+](C)(C)C)CCC12C)OO3` (stereo not shown) [3h]: the EC50 in data set [1] (72 hr) is 25 µM; in [2], 17 µM; in data set [4] (72 hr, read-out: SUM149 EC50), 21 µM; in [5], greater than 20 µM. Moreover, the “cytotoxicity compared with parental compound 3 (in words)” value in [3] is “poor activity”.
The like results for `CC(C)C(C)C=CC(C)C1CCC2C1(C)CCC1C23C=CC2(CC(OC(=O)CCCC(=O)O)CCC12C)OO3` (stereo not shown) [3i] were, in that order, 33 µM, 18 µM, 5 µM, greater than 20 µM and “poor activity”.
The like results for `C#CCCCC(=O)OC1CCC2(C)C3CCC4(C)C(C(C)C=CC(C)C(C)C)CCC4C34C=CC2(C1)OO4` (stereo not shown) [3j] were, in that order, 8 µM, 11 µM, 4 µM, greater than 13 µM and “superior activity across cell lines”.
Take `CC(C)C(C)C=CC(C)C1CCC2C1(C)CCC1C23C=CC2(CC(OC(=O)Cn4cc(CNC(=O)c5ccc6c(c5)C(=O)OC65c6ccc(N(C)C)cc6Oc6cc(N(C)C)ccc65)nn4)CCC12C)OO3` (stereo not shown) [3l]: the concentration for a half-maximal effect (EC50) is 20 µM in data set [1] (72 hr); greater than 20 µM in data set [2]; 18 µM in data set [4] (72 hr, read-out: SUM149 EC50); greater than 20 µM in data set [5]. The “solubility properties (in words)” value in [6] (water or PBS) is “poor solubility properties and precipitated readily in DMSO or PBS”.
For `CCCCCOC(=O)Nc1nc(=O)n([C@@H]2O[C@H](C)[C@@H](O)[C@H]2O)cc1F` [Capecitabin, reference compound], the EC50 is 5 µM in data set [1] (72 hr); 5 µM in data set [4] (72 hr, read-out: SUM149 EC50); 10 µM in [5].
For `COc1cccc2c1C(=O)c1c(O)c3c(c(O)c1C2=O)C[C@@](O)(C(=O)CO)C[C@@H]3O[C@H]1C[C@H](N)[C@H](O)[C@H](C)O1` [Doxorubicin, reference compound], the half-maximal effective concentration (EC50) in data set [1] (setting [10]) was 1 µM; in data set [4] (Homo sapiens, SUM149, 72 hr), 1 µM; in [5] (Homo sapiens, HMEC) it was greater than 10 µM.
`CC(C)C(C)C=CC(C)C1CCC2C1(C)CCC1C23C=CC2(CC(OC(=O)NS(=O)(=O)c4ccccc4)CCC12C)OO3` (stereo not shown) [EP sulfonamide, ergosterol peroxide sulfonamide]: in [6], the “solubility in DMSO” value is no less than 10 mM. Further, in [7], the “cytotoxic effects in normal BJ cells” value was “minimal”. In addition, the half-maximal effective concentration (EC50) in data set [8] (FIG. 10A, SUM-149 breast cancer cells, read-out: EC50, cancer cell viability of derivative) is 12 µM.
As to `CC(=O)O[C@H]1C(=O)[C@@]2(C)[C@H]([C@H](OC(=O)c3ccccc3)[C@]3(O)C[C@H](OC(=O)[C@H](O)[C@@H](NC(=O)c4ccccc4)c4ccccc4)C(C)=C1C3(C)C)[C@]1(OC(C)=O)CO[C@@H]1C[C@@H]2O` [Taxol, reference compound], the half-maximal effective concentration (EC50) was 2 µM in [1] (setting [10]); 0.01 µM in data set [4] (Homo sapiens, SUM149, 72 hr); greater than 10 µM in data set [5] (Homo sapiens, HMEC).
With `CC(C)[C@@H](C)/C=C/[C@@H](C)[C@H]1CC[C@H]2C3=CC=C4C[C@@H](O)CC[C@]4(C)[C@H]3CC[C@]12C` [ergosterol], the concentration for a half-maximal effect (EC50) in data set [9] (72-h treatment) was greater than 50 µM. In data set [9] (breast cancer cellular models, 72-h), the “cancer cell viability significantly reduced starting at” value worked out at 64 µM. For the same molecule, the “cytotoxic effects in normal BJ cells” value in data set [7] was “did not induce cytotoxic effects”. Moreover, the “concentration at which SUM-149 cell viability is significantly reduced” value in [8] (72 h) worked out at 64 µM.
`CCCCCCCCCCCCCCCC(=O)O` [palmitic acid]: in [9], the “activity at the tested concentrations in the evaluated cell lines” value is “did not show activity”.

A word on the EC50: it is the concentration giving half of the maximal effect.
